Data on four compounds can be found in US20240124456A1, “AZA-ERGOLINE DERIVATIVE AND PREPARATION METHOD THEREFOR AND APPLICATION THEREOF” (SHANGHAITECH UNIVERSITY, priority 2021, published 2024).

Structures are written as SMILES.

Test [1] deals with T1, dopamine D2 receptors (Homo sapiens (Human), UniProt P14416). Kind of test: Radioligand competition binding, affinity for dopamine D2 receptors ([3H]-Methylspiperone). The settings on record: [3H]-Methylspiperone (0.3-0.5 nM), HEK-293T membranes; for Ki: I-1 to 19 n=3, I-20 to 27 single determination; for Affinity pKi ± SEM: n=3. In general terms: In a radioligand displacement assay an active substance lowers the binding of a labelled ligand.

For test [2], the target named is T1, dopamine D2 receptors. Kind of test: G protein Gαi1-γ9 dissociation BRET, dopamine D2 receptor functional activity. It counts as cell-based. The conditions noted are these: for EC50: HEK-293T, I-1 to 19 n=3, I-20 to 27 single determination, read-out: Gai1 BRET EC50; for Emax: relative to the endogenous ligand dopamine, read-out: Gai1 BRET Emax % ± SEM. For orientation: BRET reads energy transfer from a luciferase to a nearby fluorophore.

The target of test [3] is T1, dopamine D2 receptors. Kind of test: β-arrestin2 recruitment BRET, dopamine D2 receptor functional activity. The conditions noted are these: for EC50: HEK-293T, I-1 to 19 n=3, I-20 to 27 single determination, read-out: β-arrestin2 BRET EC50; for Emax: relative to the endogenous ligand dopamine, read-out: β-arrestin2 BRET Emax % ± SEM. Format: cell-based. For orientation: Recruitment of arrestin is a read-out of receptor activation apart from second messengers.

T1 sequence (P14416 whole entry): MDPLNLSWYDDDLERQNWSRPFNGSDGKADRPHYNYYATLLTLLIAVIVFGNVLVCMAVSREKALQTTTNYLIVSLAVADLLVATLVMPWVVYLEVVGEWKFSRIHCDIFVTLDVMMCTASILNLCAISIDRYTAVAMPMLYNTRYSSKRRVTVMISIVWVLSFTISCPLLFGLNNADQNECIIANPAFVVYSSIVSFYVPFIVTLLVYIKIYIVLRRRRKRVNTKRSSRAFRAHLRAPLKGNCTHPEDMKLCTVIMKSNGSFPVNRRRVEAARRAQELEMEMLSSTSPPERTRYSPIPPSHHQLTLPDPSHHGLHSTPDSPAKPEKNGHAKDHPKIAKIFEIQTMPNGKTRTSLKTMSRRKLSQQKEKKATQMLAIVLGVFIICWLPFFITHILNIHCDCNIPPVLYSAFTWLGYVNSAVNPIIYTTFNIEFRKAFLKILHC

Broadly, the Ki is a measure of affinity in units of concentration, obtained from inhibition or displacement. Low readings indicate a stronger hold on the target, high ones a looser hold on the target. As usually defined, the EC50 is the midpoint of the concentration-response curve. In general, Emax refers to the maximal effect, on the per cent scale that the assay sets. For the compound `CN(C)C(=O)N[C@H]1CC[C@H](CCN2CCN3c4cccc5[nH]cc(c45)C[C@H]3C2)CC1` [(−)-I-10], at dopamine D2 receptors [1], affinity was put at a Ki of 22.4 nM and the “Affinity pKi ± SEM” value is “(7.65 ± 0.08)”. At dopamine D2 receptors [2], the concentration for a half-maximal effect (EC50) came out at 1.38 nM and the maximal response (Emax) was 78%. Moreover, on dopamine D2 receptors [3], the 50% effective concentration (EC50) was found to be 2.75 nM and the Emax was 89%.
In the case of `O=c1ccc2ccc(OCCCCN3CCN4c5cccc6[nH]cc(c56)CC4C3)cc2[nH]1` (racemic) [Compound I-2, 7-(4(4,6,6a,7,9,10-hexahydro-8H-pyrazino[1,2-a]pyrrolo[4,3,2-de]quinolin-8-yl)butoxy)quinolin-2(1H)-one], affinity at dopamine D2 receptors [1] was put at a Ki of 9.03 nM. Besides, the half-maximal effective concentration (EC50) at dopamine D2 receptors [2] was 14.8 nM; on dopamine D2 receptors [3], 49 nM. In addition, the results for the maximum response (Emax) at dopamine D2 receptors [2] and at dopamine D2 receptors [3] were 101% and 103%, respectively.
In the case of `CN(C)C(=O)N[C@H]1CC[C@H](CCN2CCN3c4cccc5[nH]cc(c45)C[C@@H]3C2)CC1` [(+)-I-10], at dopamine D2 receptors [1], the Ki is 1140 nM and the “Affinity pKi ± SEM” value is given as “(5.95 ± 0.17)”. Moreover, on dopamine D2 receptors [2], the concentration for a half-maximal effect (EC50) is 9.55 nM and the Emax was determined as 86%. On dopamine D2 receptors [3], the EC50 was 5.25 nM and the Emax amounted to 90%.
In the case of `O=C1CCc2ccc(OCCCCN3CCN4c5cccc6[nH]cc(c56)CC4C3)cc2N1` (centres unmarked) [Compound I-1, 7-(4(4,6,6a,7,9,10-hexahydro-8H-pyrazino[1,2-a]pyrrolo[4,3,2-de]quinolin-8-yl)butoxy)-3,4-dihydroquinolin-2(1H)-one], at dopamine D2 receptors [1], the inhibitory constant (Ki) was 33.6 nM and the “Affinity pKi ± SEM” value is “(7.47 ± 0.16)”. At dopamine D2 receptors [2], the EC50 is 16.2 nM and the Emax was found to be 100%. Further, on dopamine D2 receptors [3], the 50% effective concentration (EC50) was determined as 56.2 nM and the maximal response (Emax) was 100%.
